Source: ChEMBL document CHEMBL2029318, “Synthesis and SAR of selective small molecule neuropeptide Y Y2 receptor antagonists” (Bioorg Med Chem Lett, 2012)
pIC50: −log10 of the molar value. The source made the active and inactive calls.

Assays:
Assay type in all cases: functional
[1] = target: T1, Neuropeptide Y receptor type 2 (Homo sapiens, UniProt P49146); experiment: Partial antagonist activity at neuropeptide Y receptor Y2
T1 sequence (P49146 whole entry): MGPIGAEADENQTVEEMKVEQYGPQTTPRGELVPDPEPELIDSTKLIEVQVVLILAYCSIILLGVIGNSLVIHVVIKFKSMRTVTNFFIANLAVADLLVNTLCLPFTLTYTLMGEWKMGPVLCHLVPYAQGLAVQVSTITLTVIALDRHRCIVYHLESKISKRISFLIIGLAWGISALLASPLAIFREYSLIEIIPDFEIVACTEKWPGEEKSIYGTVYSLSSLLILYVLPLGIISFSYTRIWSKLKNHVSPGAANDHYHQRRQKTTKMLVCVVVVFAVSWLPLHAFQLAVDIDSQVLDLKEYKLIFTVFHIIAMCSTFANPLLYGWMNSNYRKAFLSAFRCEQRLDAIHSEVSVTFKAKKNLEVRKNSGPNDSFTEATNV

[2] = target: T2, Neuropeptide Y receptor type 1 (Homo sapiens) (UniProt P25929); experiment: Antagonist activity at neuropeptide Y receptor Y1 at 10 uM
T2 sequence (whole entry): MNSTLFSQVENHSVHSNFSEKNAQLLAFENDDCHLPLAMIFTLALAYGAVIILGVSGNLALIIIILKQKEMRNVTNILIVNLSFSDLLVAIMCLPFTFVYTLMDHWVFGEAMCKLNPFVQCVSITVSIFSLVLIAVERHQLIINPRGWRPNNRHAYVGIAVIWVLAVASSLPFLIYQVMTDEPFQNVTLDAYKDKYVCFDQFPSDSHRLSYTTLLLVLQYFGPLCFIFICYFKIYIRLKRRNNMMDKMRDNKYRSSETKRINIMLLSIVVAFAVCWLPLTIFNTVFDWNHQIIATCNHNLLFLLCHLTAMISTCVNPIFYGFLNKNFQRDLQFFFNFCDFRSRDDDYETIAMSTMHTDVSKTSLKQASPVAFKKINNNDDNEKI

[3] = target: T3, Neuropeptide Y receptor type 2 (Homo sapiens) (UniProt P49146); experiment: Antagonist activity at neuropeptide Y receptor Y2 at 10 uM
T3 sequence (whole entry): T1 sequence (P49146 whole entry)

Compound | pIC50 [1] | Activity [2] | Activity [3]
OC(c1ccccc1)(c1ccccc1)C1CCN(C(=S)Nc2ccc(N3CCCCC3)cc2)CC1 | 6.57 | inactive | –
COc1ccc(NC(=S)N2CCC(C(O)(c3ccccc3)c3ccccc3)CC2)cc1C(F)(F)F | 5.22 | inactive | –
COc1cccc(NC(=S)N2CCC(C(O)(c3ccccc3)c3ccccc3)CC2)c1 | 5.09 | inactive | –
CN(C)S(=O)(=O)c1ccc(NC(=S)N2CCN(C3c4ccccc4CCc4ccccc43)CC2)cc1 | – | inactive | inactive
OC(c1ccccc1)(c1ccccc1)C1CCN(C(=S)Nc2ccc(C(F)(F)F)cc2Cl)CC1 | – | inactive | inactive
CC(=O)Nc1ccc(OC(=O)N2CCC(C(O)(c3ccccc3)c3ccccc3)CC2)cc1 | – | inactive | inactive
OC(c1ccccc1)(c1ccccc1)C1CCN(C(=S)Nc2cccc(C(F)(F)F)c2)CC1 | – | inactive | inactive

Next, values leading:

pIC50 [1] | Activity [2] | Activity [3] | Compound
6.62 | inactive | – | CCOC(=O)c1cccc(NC(=S)N2CCC(C(O)(c3ccccc3)c3ccccc3)CC2)c1
– | inactive | inactive | CCOc1ccc(NC(=S)N2CCC(C(O)c3ccccc3)CC2)cc1 (configuration not stated)
– | inactive | inactive | CCOc1ccc(NC(=S)N2CCC(C(O)(c3ccccc3)c3ccccc3)CC2)c(C(F)(F)F)c1
– | inactive | inactive | CCOc1ccc(NC(=S)N2CCC(C(O)(c3ccccc3)c3ccccc3)CC2)c(C)c1
